Laboratory results as given in PMC9551036, “A selective and orally bioavailable VHL-recruiting PROTAC achieves SMARCA2 degradation in vivo” (Nature Communications, 2022).
Where “and” joins values, the source holds several entries; their conditions need not be identical. Identical values can stand only once. Like-named read-outs stand apart in the source and are kept apart here.

Tests used:
[1] = target: T1, PBRM1BD5 (Homo sapiens, UniProt Q86U86); experiment: TR-FRET ternary complex affinity and cooperativity, PBRM1; assay type: binding; settings: TR-FRET competition for PBRM1BD5, without VCB; mean ± SD; read-out: TR-FRET PBRM1BD EC50
T1 construct: GST (TEV site) (N); His6 (TEV site) (N, cleaved yes); made in house; host or cells: PBRM1^BD5: Escherichia coli BL21(DE3)
T1 sequence (Q86U86 645-766): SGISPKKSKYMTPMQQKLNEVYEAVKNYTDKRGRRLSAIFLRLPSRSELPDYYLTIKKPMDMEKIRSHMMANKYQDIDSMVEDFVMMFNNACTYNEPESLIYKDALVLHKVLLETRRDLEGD

[2] = target: VCB: PROTAC: SMARCA2^BD ternary complex (Homo sapiens, UniProt P40337+P51531); experiment: TR-FRET ternary complex affinity and cooperativity, SMARCA2; assay type: binding; parameters: P51531-2, residues 1373-1493 with additional N-terminal SM residues; GST (TEV site) (N); His6 (TEV site) (N, cleaved yes); made in house; host or cells: SMARCA2^BD: Escherichia coli BL21(DE3)
VCB: PROTAC: SMARCA2^BD ternary complex (Homo sapiens, UniProt P40337+P51531), sequence (P51531 with tags, fused parts or gaps isoform P51531-2): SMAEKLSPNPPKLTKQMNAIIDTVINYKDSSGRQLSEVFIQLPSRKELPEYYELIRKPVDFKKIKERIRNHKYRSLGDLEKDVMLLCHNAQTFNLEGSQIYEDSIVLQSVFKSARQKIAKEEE
VCB: PROTAC: SMARCA2^BD ternary complex (Homo sapiens, UniProt P40337+P51531), sequence (P40337 54-213): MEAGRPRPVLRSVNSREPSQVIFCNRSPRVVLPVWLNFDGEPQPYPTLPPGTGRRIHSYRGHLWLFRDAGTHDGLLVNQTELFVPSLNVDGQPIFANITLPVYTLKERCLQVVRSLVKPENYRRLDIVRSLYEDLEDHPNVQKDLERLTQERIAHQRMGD
VCB: PROTAC: SMARCA2^BD ternary complex (Homo sapiens, UniProt P40337+P51531), sequence (Q15369 17-112 partner): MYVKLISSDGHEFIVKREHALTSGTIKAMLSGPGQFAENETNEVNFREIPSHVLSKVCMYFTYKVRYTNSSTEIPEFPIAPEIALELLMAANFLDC
VCB: PROTAC: SMARCA2^BD ternary complex (Homo sapiens, UniProt P40337+P51531), sequence (Q15370 1-104 partner): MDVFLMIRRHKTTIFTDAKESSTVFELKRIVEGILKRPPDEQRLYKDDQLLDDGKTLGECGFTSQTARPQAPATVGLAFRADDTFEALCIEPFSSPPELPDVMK

[3] = target: T2, VCB: PROTAC: SMARCA2^BD ternary complex (Homo sapiens, UniProt P51531); experiment: as above; assay type: binding
T2 construct: P51531-2, residues 1373-1493 with additional N-terminal SM residues; GST (TEV site) (N); His6 (TEV site) (N, cleaved yes); made in house; host or cells: SMARCA2^BD: Escherichia coli BL21(DE3)
T2 sequence (P51531 with tags, fused parts or gaps isoform P51531-2): as the sequence (P51531 with tags, fused parts or gaps isoform P51531-2) above

[4] = target: T3, PBRM1 BD (Homo sapiens, UniProt Q86U86); experiment: TR-FRET binary and ternary (PROTAC + VCB) affinity, PBRM1 bromodomain; assay type: binding; settings: individual replicates
T3 construct: GST (TEV site) (N); made in house; host or cells: Escherichia coli BL21(DE3)

[5] = target: T4, SMARCA4 (Homo sapiens, UniProt P51532); experiment: SMARCA4 capillary electrophoresis protein assay in RKO cells; assay type: cell-based; parameters: endogenous in cells; host or cells: RKO, HCT116, LU99, HCC-364, HCT-15, HCC4006, SK-N-AS; settings: mean ± SD; for Dmax: RKO
T4 sequence (P51532 whole entry): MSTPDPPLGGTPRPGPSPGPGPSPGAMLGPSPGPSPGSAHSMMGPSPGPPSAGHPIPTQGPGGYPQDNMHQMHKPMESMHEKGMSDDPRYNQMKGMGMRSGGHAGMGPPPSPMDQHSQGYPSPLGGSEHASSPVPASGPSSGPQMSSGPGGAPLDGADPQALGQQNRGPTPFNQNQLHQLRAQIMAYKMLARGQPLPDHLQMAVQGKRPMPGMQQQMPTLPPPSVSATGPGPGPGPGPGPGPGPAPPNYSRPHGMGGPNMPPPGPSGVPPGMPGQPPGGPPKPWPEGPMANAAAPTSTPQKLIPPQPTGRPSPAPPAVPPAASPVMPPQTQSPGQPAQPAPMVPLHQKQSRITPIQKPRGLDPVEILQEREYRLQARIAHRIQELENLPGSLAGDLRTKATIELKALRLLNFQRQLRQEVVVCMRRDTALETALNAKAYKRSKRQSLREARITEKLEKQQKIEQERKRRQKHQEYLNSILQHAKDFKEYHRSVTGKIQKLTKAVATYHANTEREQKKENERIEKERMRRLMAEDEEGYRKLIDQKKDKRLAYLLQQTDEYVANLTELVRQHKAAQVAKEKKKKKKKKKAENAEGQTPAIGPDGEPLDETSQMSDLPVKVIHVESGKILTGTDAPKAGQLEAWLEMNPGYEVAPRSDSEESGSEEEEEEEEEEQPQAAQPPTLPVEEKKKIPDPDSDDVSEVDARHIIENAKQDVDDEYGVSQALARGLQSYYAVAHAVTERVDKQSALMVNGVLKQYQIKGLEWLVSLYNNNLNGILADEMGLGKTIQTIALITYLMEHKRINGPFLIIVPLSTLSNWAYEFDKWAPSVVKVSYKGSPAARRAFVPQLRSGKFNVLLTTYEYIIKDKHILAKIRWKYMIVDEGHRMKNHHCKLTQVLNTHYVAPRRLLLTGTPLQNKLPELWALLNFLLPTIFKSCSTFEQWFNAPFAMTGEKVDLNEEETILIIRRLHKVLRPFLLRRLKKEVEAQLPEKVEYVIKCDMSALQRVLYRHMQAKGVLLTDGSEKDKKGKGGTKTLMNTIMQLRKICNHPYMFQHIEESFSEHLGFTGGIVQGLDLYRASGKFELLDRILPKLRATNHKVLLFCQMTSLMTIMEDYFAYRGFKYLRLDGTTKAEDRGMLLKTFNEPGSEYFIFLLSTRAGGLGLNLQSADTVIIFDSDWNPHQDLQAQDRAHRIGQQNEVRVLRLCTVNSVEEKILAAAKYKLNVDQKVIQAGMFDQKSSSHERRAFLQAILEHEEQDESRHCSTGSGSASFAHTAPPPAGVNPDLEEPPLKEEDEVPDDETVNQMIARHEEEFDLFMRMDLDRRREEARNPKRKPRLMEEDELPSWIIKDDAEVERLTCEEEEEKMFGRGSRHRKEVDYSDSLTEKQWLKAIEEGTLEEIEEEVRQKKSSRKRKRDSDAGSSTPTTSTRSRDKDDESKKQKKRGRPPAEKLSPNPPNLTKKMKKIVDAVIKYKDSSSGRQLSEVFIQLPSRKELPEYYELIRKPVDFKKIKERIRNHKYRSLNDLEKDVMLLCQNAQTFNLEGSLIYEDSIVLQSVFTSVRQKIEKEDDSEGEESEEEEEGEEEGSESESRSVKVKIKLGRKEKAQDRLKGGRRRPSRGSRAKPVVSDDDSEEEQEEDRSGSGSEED
Procedure: 130,000–200,000 cells were seeded in 24-well plates and incubated until settled down or overnight. Compounds were dissolved in DMSO and added to cells in indicated concentrations using a digital dispenser following an optional media change. Cells were incubated for 4 or 18 h as indicated. For SMARCA2/4 half-life determination, 150,000 or 200,000 cells were seeded in 24-well plates. The next day, 50 µg/ml cycloheximide (Sigma) was added and cells were incubated for 1–24 h. For SMARCA2/4 re-synthesis measurements, 200,000 cells were seeded in 24-well plates. The next day, 100 nM compound 6 was added for 4 h to degrade SMARCA2/4, and a sample was taken as baseline for normalisation. To allow re-synthesis, a VHL binder (compound 32, 25 or 50 µM) was then added for 3 or 24 h. Medium was removed, cells were washed with PBS and lysed with 80 µl Lysis Buffer (MSD Tris Lysis Buffer (#R60TX-2) + Halt Inhibitor Cocktail (100x) + Benzonase 0.5 µL/ml). Samples were frozen at −80 °C and thawed at room temperature before use. Samples were transferred to a V-bottom plate and insoluble debris was pelleted by centrifugation for 5 min at maximum speed. The supernatant was transferred to a fresh plate. Master Mix and Ladder were prepared according to manufacturer’s instructions for 12–230 kDa Wes Separation Module, 8 × 25 capillary cartridges, Protein Simple #SM-W004 with Anti-Rabbit Detection Module for Wes, Peggy Sue or Sally Sue, Protein Simple #DM-001. 4.8 µl lysate were mixed with 1.2 µl Master Mix to achieve a protein concentration of ~0.5 µg/µl. Antibodies were diluted in Antibody Diluent II (SMARCA2 Sigma #HPA029981 RRID:AB_10602406 1:25–100, SMARCA4 Cell Signalling #49360 clone D1Q7F RRID:AB_2728743 1:15–120 or Abcam #ab110641 clone EPNCIR111A RRID:AB_10861578 1:60, GAPDH Abcam #ab9485 RRID:AB_307275 1:250). Wes plates were prepared and run according to manufacturer’s instructions. Proteins were quantified with accompanying Compass Software. SMARCA2/4 protein levels were normalised to GAPDH. […] Where applicable, curves were fitted using a 4-parametric logistic model.

[6] = target: T4, SMARCA4; experiment: Imaging-based SMARCA4 protein assay in RKO cells; assay type: cell-based; parameters: endogenous in cells; host or cells: RKO, HCT116, LU99, HCC-364, HCT-15, HCC4006, SK-N-AS; settings: individual replicates
Procedure: 1250 cells per well in 60 µl medium were plated in flat bottom, poly-lysin coated 384-well plates (CellCarrier Ultra, Perkin Elmer). The next day, test compounds (10 µl of serial dilutions) and DMSO controls were diluted in DMEM medium such that the final DMSO content was <1% or were added using an ultrasound dispensing system. 4 wells were reserved for a background measurement. […] After aspirating the fixing solution, the cells were washed once with 25 µl PBS. 25 µl of blocking buffer (10% goat serum in PBS) was added and cells were incubated for 30 min, then washed once with PBS. Cells were stained with 20 µl of SMARCA2/4 primary antibody solution (Sigma #HPA029981 RRID:AB_10602406 1:1000 or Cell Signalling #52251 clone E9O6 RRID:AB_2799410 1:1000 in PBS with 10% FCS) for 2–4 h at room temperature. Cells were again washed once with PBS. […] The cell layer was then washed once with 25 µl PBS, the wells were filled with 25 µl PBS and the plates were sealed with an adhesive sheet. They were then imaged on the Opera Phoenix (mean intensity in the nucleus). Results were computed as percent of controls ((value of test compound − background)/(value of the negative control DMSO—background) multiplied by 100). EC50 values were computed using a 4-parametric logistic model.

[7] = PROTAC + VCB, individual replicates, read-out: Ternary SMARCA2 BD EC50 (PROTAC + VCB)
[8] = TR-FRET competition for SMARCA2BD, + VCB, mean ± SD, read-out: TR-FRET Ternary SMARCA2BD EC50 (PROTAC + VCB)
[9] = TR-FRET competition for SMARCA2BD, without VCB, mean ± SD, read-out: TR-FRET SMARCA2BD EC50
[10] = binary, PROTAC alone, individual replicates, read-out: SMARCA2 BD EC50
[11] = PROTAC + VCB, read-out: Ternary PBRM1 BD EC50 (PROTAC + VCB)
[12] = binary, PROTAC alone, read-out: PBRM1 EC50
[13] = 18h, read-out: RKO (18h) SMARCA4 DC50
[14] = 4h, read-out: RKO (4h) SMARCA4 DC50

Cc1ncsc1-c1ccc([C@H](COC(C)(C)CN2CCC(c3ccc4c(c3)n(C3CCCC3)c3nc(=O)c5c(Br)cccc5n43)CC2)NC(=O)[C@@H]2C[C@@H](O)CN2C(=O)[C@@H](NC(=O)C2(F)CC2)C(C)(C)C)cc1 [compound 28]
EC50 [1]: 24 ± 11 nM
EC50 [2, 7]: 34 nM and 37.9 nM and 38.6 nM and 39.5 nM and 28.8 nM and 36.1 nM and 40.6 nM and 27.9 nM and 35.6 nM and 32 nM
EC50 [2, 8]: 35 ± 4 nM
EC50 [3, 9]: 130 ± 18 nM
EC50 [3, 10]: 132 nM and 140 nM and 145 nM and 139 nM and 134 nM and 133 nM and 154 nM and 106 nM and 96.3 nM and 137 nM
EC50 [4, 11]: 5.74 nM and 5.13 nM and 5.34 nM and 1.07 nM
EC50 [4, 12]: 37.2 nM and 28.8 nM and 29.6 nM and 10.8 nM
DC50 ([5]; RKO (4 h)): > 25000 nM
DC50 ([5]; RKO (18 h)): 159 ± 57 nM
SMARCA4 Dmax ([5]; RKO (18 h)): 14 ± 42%
DC50 [6, 13]: 101 nM and 200 nM (2×) and > 833 nM

Cc1ncsc1-c1ccc([C@H](COC(C)CN2CCC(c3ccc4c(c3)n(C3CCCC3)c3nc(=O)c5c(Br)cccc5n43)CC2)NC(=O)[C@@H]2C[C@@H](O)CN2C(=O)[C@@H](NC(=O)C2(N(C)C)CC2)C(C)(C)C)cc1 (some centres unmarked) [compound 10]
EC50 [1]: 31 ± 1 nM
EC50 [2, 7]: 13.9 nM and 16.3 nM and 16.6 nM and 37.3 nM and 12.6 nM and 9.3 nM and 12.5 nM
EC50 [2, 8]: 15 ± 9 nM
EC50 [3, 9]: 150 ± 52 nM
EC50 [3, 10]: 120 nM and 130 nM and 128 nM and 228 nM and 217 nM and 116 nM
EC50 [4, 11]: 6.43 nM and 7.96 nM and 8.03 nM and 9.7 nM
EC50 [4, 12]: 30.5 nM and 31.7 nM and 30 nM
DC50 ([5]; RKO (4 h)): 83 ± 22 nM
DC50 ([5]; RKO (18 h)): 174 ± 72 nM
Dmax ([5]; RKO (4 h)): 34 ± 6%
Dmax ([5]; RKO (18 h)): 68 ± 15%
DC50 [6, 14]: > 25000 nM
DC50 [6, 13]: 103 nM and 218 nM and 235 nM

Cc1ncsc1-c1ccc([C@H](COC(C)CN2CCC(c3ccc4c(c3)n(C3CCCC3)c3nc(=O)c5c(Br)cccc5n43)CC2)NC(=O)[C@@H]2C[C@@H](O)CN2C(=O)[C@@H](NC(=O)C2(F)CC2)C(C)(C)C)cc1 (some centres unmarked) [compound 9]
EC50 [1]: 34 ± 4 nM
EC50 [2, 7]: 20.6 nM and 18 nM and 20.2 nM and 22.8 nM and 25.6 nM and 25.2 nM and 34 nM and 21.7 nM and 14.5 nM and 19.9 nM and 18.7 nM
EC50 [2, 8]: 21 ± 5 nM
EC50 [3, 9]: 143 ± 27 nM
EC50 [3, 10]: 132 nM and 149 nM and 140 nM (2×) and 172 nM and 134 nM and 115 nM and 202 nM and 128 nM
EC50 [4, 11]: 6.04 nM and 5.66 nM and 5.49 nM and 5.75 nM and 6.81 nM and 13.2 nM and 4.82 nM
EC50 [4, 12]: 31.7 nM and 35 nM and 40.8 nM and 29.8 nM and 31 nM
DC50 ([5]; RKO (4 h)): > 25000 nM
DC50 ([5]; RKO (18 h)): 1780 nM
Dmax ([5]; RKO (18 h)): 88 ± 16%
DC50 [6, 14]: > 25000 nM
DC50 [6, 13]: 912 nM and > 833 nM (2×) and 3.47 µM

Cc1ncsc1-c1ccc([C@H](CCCCN2CCC(c3ccc4c(c3)n(C3CCCC3)c3nc(=O)c5c(Br)cccc5n43)CC2)NC(=O)[C@@H]2C[C@@H](O)CN2C(=O)[C@@H](NC(=O)C2(F)CC2)C(C)(C)C)cc1 [compound 25]
EC50 [1]: 36 ± 12 nM
EC50 [2, 7]: 208 nM and 27.9 nM and 62.3 nM and 29 nM and 29.1 nM and 33.2 nM and 38.8 nM and 39.9 nM and 50.6 nM and 51.7 nM and 46 nM and 34.5 nM and 27.1 nM
EC50 [2, 8]: 43 ± 48 nM
EC50 [3, 9]: 87 ± 35 nM
EC50 [3, 10]: 179 nM and 54.5 nM and 63.5 nM and 111 nM and 66.9 nM and 57.7 nM and 73.7 nM and 97.8 nM and 88.9 nM and 103 nM and 118 nM and 101 nM and 123 nM and 55.7 nM
EC50 [4, 11]: 2.29 nM and 2.88 nM and 3.31 nM and 5.31 nM and 3.22 nM
EC50 [4, 12]: 33 nM and 36.4 nM and 33.2 nM and 57.3 nM and 26.6 nM
DC50 ([5]; RKO (18 h)): 40 ± 16 nM
SMARCA4 Dmax ([5]; RKO (18 h)): 52 ± 21%
DC50 [6, 13]: 31.7 nM and 60 nM and 33.5 nM

Cc1ncsc1-c1ccc(CNC(=O)[C@@H]2C[C@@H](O)CN2C(=O)[C@@H](NC(=O)C2(F)CC2)C(C)(C)C)c(OCCCCN2CCC(c3ccc4c(c3)n(C3CCCC3)c3nc(=O)c5c(Br)cccc5n43)CC2)c1 [compound 23]
EC50 [1]: 39 ± 5 nM
EC50 [2, 7]: 115 nM and 127 nM and 132 nM and 372 nM
EC50 [2, 8]: 164 ± 124 nM
EC50 [3, 9]: 98 ± 12 nM
EC50 [3, 10]: 88.5 nM and 111 nM and 107 nM and 87.4 nM
EC50 [4, 11]: 18.3 nM and 22.9 nM and 22.1 nM
EC50 [4, 12]: 46.2 nM and 37.9 nM and 38.2 nM and 36.1 nM
DC50 ([5]; RKO (4 h)): > 25000 nM
DC50 ([5]; RKO (18 h)): 1260 nM
SMARCA4 Dmax ([5]; RKO (18 h)): 76 ± 30%
